Like-named read-outs stand apart in the source and are kept apart here.
Legend:
CYP3A4 [1] = settings: cited from earlier work
CYP3A = settings: multiple oral 600 mg rifampicin; cited from earlier work
CYP2B6 = CYP2B6 mRNA induction in cultured human hepatocytes
P-gp [2] = assay: P-gp mRNA induction in cultured human hepatocytes; assay type: cell-based
P-gp (human MDR1) = P-gp (human MDR1) (Homo sapiens, UniProt P08183); assay: In vitro P-gp inhibition: 3H-digoxin permeation across control and MDR1-expressing LLC-PK1 cell monolayers; settings: for Control cells Papp ratio / Corrected Papp ratio / MDR1-expressing cells Papp ratio: 3H-digoxin 1 µmol/L
Procedure: MDR1-expressing cells (porcine kidney epithelial LLC-PK1 cells transfected with human MDR1 cDNA) was used. The MDR1-expressing cells were seeded at a density of 4 × 10^4 cells/insert in plates and were incubated in a CO2 incubator (37 °C, CO2: 5%) for 7 to 9 days to prepare cell monolayers. […] After incubation for 4 h at 37 °C, a 70-μL aliquot of the incubation solutions was collected as the analytical sample from the opposite compartment of that spiked with test solutions (receiver compartment). The collected samples were immediately combined with 10 mL of scintillator, and the radioactivity was counted using the LSC. Permeability coefficient (Papp) of ^3H-digoxin was calculated using the following equation: Pappcm/sec=[dQ/dt]/A/C0 where dQ/dt is the transport rate (dpm/sec); A is the membrane area (cm^2); C0 is the initial concentration (dpm/mL). The ratio of permeability coefficient (Papp ratio) was calculated from the basal to apical Papp and apical to basal Papp according to the following equation: Pappratio=BasaltoapicalPapp/ApicaltobasalPapp
Furthermore, the ratios of the Papp ratios in MDR1-expressing cells to the Papp ratios in control cells were calculated as corrected Papp ratio according to the following equation: CorrectedPappratio=PappratiooftheMDR1expressingcells/Pappratioofthecontrolcells
The % of control was calculated from the corrected Papp ratio according to the following equation: \% \,of\,control=CorrectedPappratio\,in\,the\,absence\,or\,presence\,of\,inhibitors/CorrectedPappratio\,in\,the\,absence\,of\,inhibitors×100

CYP3A4 [3] = tested on: CYP3A4
Procedure: (§1) Hepatocytes were cultured according to previously described methods [8]. […] Single-stranded cDNA was prepared from RNA with the RT Master Mix using the AB 7900HT Fast Real Time PCR System thermocycling program. Quantitative RT-PCR was carried out in triplicate. Relative quantification measures the change in mRNA expression in a test sample relative to that in a control sample (e.g., DMSO). This method assumes that the efficiency of the target amplification and the efficiency of the endogenous control amplification are approximately equal.
(§2) The maximal fold induction (Indmax) and half concentration to reach Indmax (IndC50) were determined based on the following equation: Foldinduction=1+Indmax-1×Ct/IndC50+Ct where Ct is the test drug concentration.

CYP1A2 = CYP1A2 mRNA induction in cultured human hepatocytes
Procedure: as §1, §2

CYP2C8 = CYP2C8 mRNA induction in cultured human hepatocytes
Procedure: as §1, §2

CYP2C9 = CYP2C9 mRNA induction in cultured human hepatocytes
Procedure: as §1, §2

CYP2C19 = CYP2C19 mRNA induction in cultured human hepatocytes
Procedure: as §1, §2

P-gp [4] = settings: cited from earlier work
[5] = multiple 160 mg doses of enzalutamide, mean (SD)
[6] = with/without enzalutamide 160 mg multiple doses, geometric mean ratio (90% CI)
[7] = 100 µmol/L (enzalutamide, M2: two lots of hepatocyte)
[8] = multiple oral 160 mg enzalutamide

P-gp (human MDR1), sequence (P08183 whole entry): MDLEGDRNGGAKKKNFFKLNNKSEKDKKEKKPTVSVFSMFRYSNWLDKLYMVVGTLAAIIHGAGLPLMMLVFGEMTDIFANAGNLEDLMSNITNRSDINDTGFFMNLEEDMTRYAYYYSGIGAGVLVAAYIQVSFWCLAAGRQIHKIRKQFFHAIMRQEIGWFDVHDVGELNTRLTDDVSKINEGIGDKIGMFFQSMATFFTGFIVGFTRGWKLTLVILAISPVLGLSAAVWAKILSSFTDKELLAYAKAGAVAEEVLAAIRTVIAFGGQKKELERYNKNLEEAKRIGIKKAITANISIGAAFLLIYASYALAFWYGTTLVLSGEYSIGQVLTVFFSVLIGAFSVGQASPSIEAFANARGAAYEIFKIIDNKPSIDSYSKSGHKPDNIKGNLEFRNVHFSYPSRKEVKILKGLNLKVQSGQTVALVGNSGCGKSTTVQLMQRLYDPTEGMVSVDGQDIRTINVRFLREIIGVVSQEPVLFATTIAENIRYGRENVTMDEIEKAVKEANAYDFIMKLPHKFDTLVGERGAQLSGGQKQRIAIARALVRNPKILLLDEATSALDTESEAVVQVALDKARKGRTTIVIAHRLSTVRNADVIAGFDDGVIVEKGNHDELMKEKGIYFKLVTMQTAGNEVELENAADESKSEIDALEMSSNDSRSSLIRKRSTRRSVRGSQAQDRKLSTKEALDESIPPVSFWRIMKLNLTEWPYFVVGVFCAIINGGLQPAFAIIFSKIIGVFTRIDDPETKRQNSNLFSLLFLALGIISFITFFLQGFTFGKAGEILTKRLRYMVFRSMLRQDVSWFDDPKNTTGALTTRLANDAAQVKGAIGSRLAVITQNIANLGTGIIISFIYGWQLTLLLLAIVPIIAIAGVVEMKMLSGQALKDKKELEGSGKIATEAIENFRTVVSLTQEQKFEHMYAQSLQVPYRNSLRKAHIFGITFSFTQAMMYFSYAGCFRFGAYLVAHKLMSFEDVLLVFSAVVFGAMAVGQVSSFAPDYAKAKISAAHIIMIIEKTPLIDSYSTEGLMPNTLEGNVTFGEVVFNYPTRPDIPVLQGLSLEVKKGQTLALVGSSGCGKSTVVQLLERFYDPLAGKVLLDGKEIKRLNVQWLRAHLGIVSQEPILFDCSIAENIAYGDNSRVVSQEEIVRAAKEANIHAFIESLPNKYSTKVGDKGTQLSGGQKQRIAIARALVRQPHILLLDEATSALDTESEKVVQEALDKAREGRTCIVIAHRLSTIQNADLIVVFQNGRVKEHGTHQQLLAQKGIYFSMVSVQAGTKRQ

Cc1ncc2n1-c1ccc(Cl)cc1C(c1ccccc1F)=NC2 [Midazolam, midazolam]
AUC without enzalutamide, observed (CYP3A4 [1]; mean (SD)): 32.0 (12.8) ng·h/mL
Cmax without enzalutamide, observed (CYP3A4 [1]; mean (SD)): 9.98 (3.17) ng/mL
AUC with enzalutamide, observed (CYP3A4 [1]; [5]): 4.22 (0.784) ng·h/mL
Cmax with enzalutamide, observed (CYP3A4 [1]; [5]): 2.29 (0.868) ng/mL
AUC ratio, observed (CYP3A4 [1]; [6]): 0.14 (0.12–0.17)
Cmax ratio, observed (CYP3A4 [1]; [6]): 0.23 (0.20–0.27)
Decrease in midazolam AUC by rifampicin (CYP3A): more than 90%
Midazolam AUC ratio with rifampicin (CYP3A): less than 0.1

CC1(C)C(=O)N(c2ccc(C#N)c(C(F)(F)F)c2)C(=S)N1c1ccc(C(=O)O)c(F)c1 [M1]
Fold increase CYP2B6 mRNA (CYP2B6; 1 µmol/L): 0.724 ± 0.316 fold
Fold increase CYP2B6 mRNA (CYP2B6; 10 µmol/L): 1.03 ± 0.43 fold
Fold increase CYP2B6 mRNA (CYP2B6; [7]): 0.848 ± 0.337 fold
Fold increase P-gp mRNA (P-gp [2]; 1 µmol/L): 0.885 ± 0.553 fold
Fold increase P-gp mRNA (P-gp [2]; 10 µmol/L): 1.46 ± 0.79 fold
Fold increase P-gp mRNA (P-gp [2]; [7]): 1.32 ± 0.25 fold
Control cells Papp ratio (P-gp (human MDR1); additive 0.3 µmol/L): 1.3
Corrected Papp ratio (P-gp (human MDR1); additive 0.3 µmol/L): 13.2
MDR1-expressing cells Papp ratio (P-gp (human MDR1); additive 0.3 µmol/L): 17.1
Control cells Papp ratio (P-gp (human MDR1); additive 1 µmol/L): 1.2
Corrected Papp ratio (P-gp (human MDR1); additive 1 µmol/L): 17.4
MDR1-expressing cells Papp ratio (P-gp (human MDR1); additive 1 µmol/L): 20.9
Control cells Papp ratio (P-gp (human MDR1); additive 3 µmol/L): 1.0
Corrected Papp ratio (P-gp (human MDR1); additive 3 µmol/L): 19.2
MDR1-expressing cells Papp ratio (P-gp (human MDR1); additive 3 µmol/L): 19.2
Control cells Papp ratio (P-gp (human MDR1); additive 10 µmol/L): 1.0
Corrected Papp ratio (P-gp (human MDR1); additive 10 µmol/L): 21.7
MDR1-expressing cells Papp ratio (P-gp (human MDR1); additive 10 µmol/L): 21.7
Control cells Papp ratio (P-gp (human MDR1); additive 30 µmol/L): 1.0
Corrected Papp ratio (P-gp (human MDR1); additive 30 µmol/L): 18.3
MDR1-expressing cells Papp ratio (P-gp (human MDR1); additive 30 µmol/L): 18.3
Control cells Papp ratio (P-gp (human MDR1); additive 80 µmol/L): 1.0
Corrected Papp ratio (P-gp (human MDR1); additive 80 µmol/L): 21.3
MDR1-expressing cells Papp ratio (P-gp (human MDR1); additive 80 µmol/L): 21.3
Inhibition of P-gp-mediated 3H-digoxin transport (P-gp (human MDR1); result in words): did not inhibit
Fold increase CYP3A4 mRNA (CYP3A4 [3]; 1 µmol/L): 0.832 ± 0.417 fold
Fold increase CYP3A4 mRNA (CYP3A4 [3]; 10 µmol/L): 1.17 ± 0.46 fold
Fold increase CYP3A4 mRNA (CYP3A4 [3]; hepatocytes): 1.83 ± 0.98 fold
Fold increase CYP1A2 mRNA (CYP1A2; 1 µmol/L): 0.697 ± 0.260 fold
Fold increase CYP1A2 mRNA (CYP1A2; 10 µmol/L): 0.883 ± 0.303 fold
Fold increase CYP1A2 mRNA (CYP1A2; [7]): 1.01 ± 0.59 fold
Fold increase CYP2C8 mRNA (CYP2C8; 1 µmol/L): 1.11 ± 0.53 fold
Fold increase CYP2C8 mRNA (CYP2C8; 10 µmol/L): 1.44 ± 0.50 fold
Fold increase CYP2C8 mRNA (CYP2C8; [7]): 2.35 ± 1.66 fold
Fold increase CYP2C9 mRNA (CYP2C9; 1 µmol/L): 0.853 ± 0.361 fold
Fold increase CYP2C9 mRNA (CYP2C9; 10 µmol/L): 0.888 ± 0.172 fold
Fold increase CYP2C9 mRNA (CYP2C9; [7]): 1.52 ± 0.63 fold
Fold increase CYP2C19 mRNA (CYP2C19; 1 µmol/L): 0.855 ± 0.246 fold
Fold increase CYP2C19 mRNA (CYP2C19; 10 µmol/L): 1.06 ± 0.10 fold
Fold increase CYP2C19 mRNA (CYP2C19; [7]): 1.55 ± 0.80 fold

CCC1(c2ccccc2)C(=O)NC(=O)NC1=O [Phenobarbital, phenobarbital, reference compound]
Fold increase CYP2B6 mRNA (CYP2B6; 750 µmol/L): 6.90 ± 3.66 fold
Fold increase P-gp mRNA (P-gp [2]; 750 µmol/L): 2.61 ± 0.59 fold

C[C@H]1O[C@@H](O[C@H]2[C@@H](O)C[C@H](O[C@H]3[C@@H](O)C[C@H](O[C@H]4CC[C@@]5(C)[C@H](CC[C@@H]6[C@@H]5C[C@@H](O)[C@]5(C)[C@@H](C7=CC(=O)OC7)CC[C@]65O)C4)O[C@@H]3C)O[C@@H]2C)C[C@H](O)[C@@H]1O [Digoxin, digoxin]
AUC ratio, observed (P-gp [4]; geometric mean ratio (90% CI)): 1.29 (1.21–1.38)
Cmax ratio, observed (P-gp [4]; geometric mean ratio (90% CI)): 1.17 (1.06–1.29)
AUC without enzalutamide, observed (P-gp [4]; mean (SD)): 22.1 (4.10) ng·h/mL
Cmax without enzalutamide, observed (P-gp [4]; mean (SD)): 1.45 (0.314) ng/mL
AUC with enzalutamide, observed (P-gp [4]; [5]): 28.7 (5.79) ng·h/mL
Cmax with enzalutamide, observed (P-gp [4]; [5]): 1.69 (0.384) ng/mL
Increase in digoxin AUC by enzalutamide (P-gp [4]; [8]): 29%
Increase in digoxin Cmax by enzalutamide (P-gp [4]; [8]): 17%

From PMC10460728 (Journal of Pharmacokinetics and Pharmacodynamics, 2023)
